Measured values as given in patent US20250361268A1, “NOVEL ANTI-INFLAMMATORY PEPTIDE AND USE THEREOF” (NOVACELL TECHNOLOGY INC., priority 2022, published 2025).
Peptide text beside a SMILES is read from it.

Assays:
FPR2 = target: T1, FPR2 (Homo sapiens, UniProt P25090); experiment: Change in calcium activity by peptide (Fura-2) in RBL cells overexpressing FPR2; format: cell-based; details: calcium activity (Fura-2), graded per Table 3, read-out: EC50 for [Ca^2+] FPR2
T1 construct: expressed in transfected cells; host or cells: RBL cells (RBL-FPR2)
T1 sequence (P25090 1-351): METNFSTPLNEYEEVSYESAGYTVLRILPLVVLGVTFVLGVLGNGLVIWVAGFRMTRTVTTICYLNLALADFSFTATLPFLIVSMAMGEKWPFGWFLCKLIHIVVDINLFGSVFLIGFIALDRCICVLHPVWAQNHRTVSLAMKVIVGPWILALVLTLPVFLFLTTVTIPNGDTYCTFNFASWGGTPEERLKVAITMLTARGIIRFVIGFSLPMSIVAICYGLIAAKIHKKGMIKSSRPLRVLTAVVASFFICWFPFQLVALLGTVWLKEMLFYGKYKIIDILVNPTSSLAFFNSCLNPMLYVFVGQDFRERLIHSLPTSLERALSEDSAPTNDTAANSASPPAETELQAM
Method in brief: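 Rat basophilic leukemia cells overexpressing FPR2 loaded with Fura-2 (37 °C 1 h, then RT 30 min dark); peptides (0.5 mM stocks in water or 50% DMSO) diluted in HBSS + 20 mM HEPES and added on a plate reader, intracellular Ca2+ change recorded.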

FPR1 = target: T2, FPR1 (Homo sapiens, UniProt P21462); experiment: Change in calcium activity by peptide, FPR1 activation effect; format: cell-based; details: calcium activity (Fura-2), graded per Table 3, read-out: EC50 for [Ca^2+] FPR1
T2 sequence (P21462 1-350): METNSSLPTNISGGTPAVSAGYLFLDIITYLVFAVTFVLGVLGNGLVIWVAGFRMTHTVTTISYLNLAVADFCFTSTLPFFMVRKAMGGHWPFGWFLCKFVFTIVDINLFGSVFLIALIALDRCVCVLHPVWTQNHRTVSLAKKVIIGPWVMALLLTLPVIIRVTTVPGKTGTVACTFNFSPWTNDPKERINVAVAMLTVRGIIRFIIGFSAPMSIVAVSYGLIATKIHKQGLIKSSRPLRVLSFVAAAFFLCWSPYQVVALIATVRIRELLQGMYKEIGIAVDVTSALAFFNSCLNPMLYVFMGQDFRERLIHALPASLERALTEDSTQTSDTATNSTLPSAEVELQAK
Method in brief: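 Cells plated at 3×10^5 per well the day before were loaded with Fura-2 for 1 h at 37 °C, then kept 30 min in the dark at room temperature. Peptide-evoked calcium changes were recorded on a FlexStation 3.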

Row | Structure (SMILES) | EC50 (FPR2) [nM] | EC50 (FPR1) [nM]
1 | CSCC[C@@H](NC(=O)[C@H](Cc1ccc(O)cc1)NC(=O)[C@H](CCCCN)NC(=O)[C@H](Cc1ccc(O)cc1)NC(=O)[C@H](CCCNC(=N)N)NC(=O)[C@H](Cc1c[nH]c2ccccc12)NC(=O)[C@@H](N)CCCNC(=N)N)C(N)=O [Peptide 32] (HELM PEPTIDE1{R.W.R.Y.K.Y.[dM].[am]}$$$$V2.0) | 11 to 100 | > 10000
2 | CSCC[C@H](NC(=O)[C@H](CCCNC(=N)N)NC(C)=O)C(=O)N[C@@H](CCCNC(=N)N)C(=O)N[C@@H](Cc1ccc(O)cc1)C(=O)N[C@@H](Cc1ccc(O)cc1)C(=O)N[C@H](C(=O)N[C@H](CCSC)C(N)=O)C(C)C [Peptide 98] (HELM PEPTIDE1{[ac].R.M.R.Y.Y.V.[dM].[am]}$$$$V2.0) | < 10 | 1000 to 10000
3 | CSCC[C@H](NC(C)=O)C(=O)N[C@@H](CCCNC(=N)N)C(=O)N[C@@H](Cc1ccc(O)cc1)C(=O)N[C@@H](CCCCN)C(=O)N[C@@H](Cc1ccc(O)cc1)C(=O)N[C@H](CCSC)C(N)=O [Peptide 42] (HELM PEPTIDE1{[ac].M.R.Y.K.Y.[dM].[am]}$$$$V2.0) | 11 to 100 | > 10000
4 | CSCC[C@H](NC(C)=O)C(=O)N[C@@H](CCCNC(=N)N)C(=O)N[C@@H](Cc1ccc(O)cc1)C(=O)N[C@@H](Cc1c[nH]c2ccccc12)C(=O)N[C@H](C(=O)N[C@H](CCSC)C(N)=O)C(C)C [Peptide 105] (HELM PEPTIDE1{[ac].M.R.Y.W.V.[dM].[am]}$$$$V2.0) | < 10 | 101 to 1000
5 | CCCC(=O)N1CCC[C@H]1C(=O)N[C@@H](CCSC)C(=O)N[C@@H](CCCNC(=N)N)C(=O)N[C@@H](Cc1ccc(O)cc1)C(=O)N[C@@H](CCCCN)C(=O)N[C@@H](Cc1ccc(O)cc1)C(=O)N[C@H](CCSC)C(N)=O [Peptide 47] (HELM PEPTIDE1{[CCCC(=O)[*:2]].P.M.R.Y.K.Y.[dM].[am]}$$$$V2.0) | < 10 | > 10000
6 | CCCC(=O)N1CCC[C@H]1C(=O)N[C@@H](CCSC)C(=O)N[C@@H](CCCNC(=N)N)C(=O)N[C@@H](Cc1ccc(O)cc1)C(=O)N[C@@H](CCCCN)C(=O)N1CCC[C@H]1C(=O)N[C@H](CCSC)C(N)=O [Peptide 64] (HELM PEPTIDE1{[CCCC(=O)[*:2]].P.M.R.Y.K.P.[dM].[am]}$$$$V2.0) | < 10 | > 10000
7 | CCCC(=O)N[C@@H](CCCNC(=N)N)C(=O)N[C@@H](Cc1c[nH]c2ccccc12)C(=O)N[C@@H](CCCNC(=N)N)C(=O)N[C@@H](Cc1ccc(O)cc1)C(=O)N[C@@H](CCCCN)C(=O)N1CCC[C@H]1C(=O)N[C@H](CCSC)C(N)=O [Peptide 75] (HELM PEPTIDE1{[CCCC(=O)[*:2]].R.W.R.Y.K.P.[dM].[am]}$$$$V2.0) | < 10 | 1000 to 10000
8 | CSCC[C@H](NC(C)=O)C(=O)N[C@@H](CCCNC(=N)N)C(=O)N[C@@H](Cc1ccc(O)cc1)C(=O)N[C@@H](CCCNC(=N)N)C(=O)N[C@@H](Cc1ccc(O)cc1)C(=O)N[C@H](CCSC)C(N)=O [Peptide 49] (HELM PEPTIDE1{[ac].M.R.Y.R.Y.[dM].[am]}$$$$V2.0) | 11 to 100 | > 10000
9 | CSCC[C@@H](NC(=O)[C@H](Cc1ccc(O)cc1)NC(=O)[C@H](Cc1c[nH]c2ccccc12)NC(=O)[C@H](Cc1ccc(O)cc1)NC(=O)[C@H](CCCNC(=N)N)NC(=O)[C@H](Cc1c[nH]c2ccccc12)NC(=O)[C@H](CCCNC(=N)N)NC(C)=O)C(N)=O [Peptide 78] (HELM PEPTIDE1{[ac].R.W.R.Y.W.Y.[dM].[am]}$$$$V2.0) | < 10 | > 10000
10 | CCCCCCCC(=O)N[C@@H](CCCNC(=N)N)C(=O)N[C@@H](CCSC)C(=O)N[C@@H](CCCNC(=N)N)C(=O)N[C@@H](Cc1ccc(O)cc1)C(=O)N[C@@H](CCCCN)C(=O)N1CCC[C@H]1C(=O)N[C@H](CCSC)C(N)=O [Peptide 53] (HELM PEPTIDE1{[CCCCCCCC(=O)[*:2]].R.M.R.Y.K.P.[dM].[am]}$$$$V2.0) | < 10 | > 10000
11 | CSCC[C@@H](NC(=O)[C@H](Cc1ccc(O)cc1)NC(=O)[C@H](Cc1c[nH]c2ccccc12)NC(=O)[C@H](Cc1ccc(O)cc1)NC(=O)[C@H](CCCNC(=N)N)NC(=O)[C@H](Cc1c[nH]c2ccccc12)NC(=O)[C@@H](N)CCCNC(=N)N)C(N)=O [Peptide 77] (HELM PEPTIDE1{R.W.R.Y.W.Y.[dM].[am]}$$$$V2.0) | 11 to 100 | > 10000
12 | CSCC[C@H](NC(=O)[C@@H](N)Cc1c[nH]cn1)C(=O)N[C@@H](CCCNC(=N)N)C(=O)N[C@@H](Cc1ccc(O)cc1)C(=O)N[C@@H](CCCCN)C(=O)N1CCC[C@H]1C(=O)N[C@H](CCSC)C(N)=O [Peptide 58] (HELM PEPTIDE1{H.M.R.Y.K.P.[dM].[am]}$$$$V2.0) | < 10 | > 10000

Next, values leading:

Row | EC50 (FPR2) [nM] | EC50 (FPR1) [nM] | Structure (SMILES)
13 | < 10 | > 10000 | CCCC(=O)N[C@@H](CCCCN)C(=O)N[C@@H](CCSC)C(=O)N[C@@H](CCCCN)C(=O)N[C@@H](Cc1ccc(O)cc1)C(=O)N[C@@H](CCCCN)C(=O)N[C@H](C(=O)N[C@H](CCSC)C(N)=O)C(C)C [Peptide 11] (HELM PEPTIDE1{[CCCC(=O)[*:2]].K.M.K.Y.K.V.[dM].[am]}$$$$V2.0)
14 | < 10 | > 10000 | CSCC[C@H](N)C(=O)N[C@@H](CCCNC(=N)N)C(=O)N[C@@H](Cc1ccc(O)cc1)C(=O)N[C@@H](CCCCN)C(=O)N1CCC[C@H]1C(=O)N[C@H](CCSC)C(N)=O [Peptide 54] (HELM PEPTIDE1{M.R.Y.K.P.[dM].[am]}$$$$V2.0)
15 | < 10 | > 10000 | CSCC[C@@H](NC(=O)[C@@H]1CCCN1C(=O)[C@H](CCCCN)NC(=O)[C@H](Cc1ccc(O)cc1)NC(=O)[C@H](CCCCN)NC(=O)[C@@H](N)Cc1c[nH]cn1)C(N)=O [Peptide 146] (HELM PEPTIDE1{H.K.Y.K.P.[dM].[am]}$$$$V2.0)
16 | < 10 | > 10000 | CCCC(=O)N[C@H](C(=O)N[C@@H](CCCCN)C(=O)N[C@@H](Cc1ccc(O)cc1)C(=O)N[C@@H](CCCCN)C(=O)N[C@H](C(=O)N[C@H](CCSC)C(N)=O)C(C)C)[C@@H](C)CC [Peptide 136] (HELM PEPTIDE1{[CCCC(=O)[*:2]].I.K.Y.K.V.[dM].[am]}$$$$V2.0)
17 | < 10 | > 10000 | CSCC[C@@H](NC(=O)[C@@H](NC(=O)[C@H](CCCCN)NC(=O)[C@H](Cc1ccc(O)cc1)NC(=O)[C@H](CCCCN)NC(=O)[C@@H]1CCCN1)C(C)C)C(N)=O [Peptide 138] (HELM PEPTIDE1{P.K.Y.K.V.[dM].[am]}$$$$V2.0)
18 | < 10 | > 10000 | CSCC[C@H](NC(=O)[C@@H]1CCCN1C(C)=O)C(=O)N[C@@H](CCCCN)C(=O)N[C@@H](Cc1ccc(O)cc1)C(=O)N[C@@H](CCCCN)C(=O)N[C@H](C(=O)N[C@H](CCSC)C(N)=O)C(C)C [Peptide 26] (HELM PEPTIDE1{[ac].P.M.K.Y.K.V.[dM].[am]}$$$$V2.0)
19 | < 10 | > 10000 | CSCC[C@H](NC(=O)[C@H](Cc1c[nH]cn1)NC(C)=O)C(=O)N[C@@H](CCCCN)C(=O)N[C@@H](Cc1ccc(O)cc1)C(=O)N[C@@H](CCCCN)C(=O)N[C@H](C(=O)N[C@H](CCSC)C(N)=O)C(C)C [Peptide 22] (HELM PEPTIDE1{[ac].H.M.K.Y.K.V.[dM].[am]}$$$$V2.0)
20 | < 10 | > 10000 | CCCC(=O)N[C@@H](CCCCN)C(=O)N[C@@H](CCSC)C(=O)N[C@@H](CCCCN)C(=O)N[C@@H](Cc1ccc(O)cc1)C(=O)N[C@@H](CCCCN)C(=O)N1CCC[C@H]1C(=O)N[C@H](CCSC)C(N)=O [Peptide 68] (HELM PEPTIDE1{[CCCC(=O)[*:2]].K.M.K.Y.K.P.[dM].[am]}$$$$V2.0)
21 | 11 to 100 | > 10000 | CSCC[C@H](NC(=O)[C@H](CCCCN)NC(C)=O)C(=O)N[C@@H](CCCCN)C(=O)N[C@@H](Cc1ccc(O)cc1)C(=O)N[C@@H](CCCCN)C(=O)N[C@H](C(=O)N[C@H](CCSC)C(N)=O)C(C)C [Peptide 10] (HELM PEPTIDE1{[ac].K.M.K.Y.K.V.[dM].[am]}$$$$V2.0)
22 | < 10 | > 10000 | CCCC(=O)N[C@@H](Cc1c[nH]cn1)C(=O)N[C@@H](CCCCN)C(=O)N[C@@H](Cc1ccc(O)cc1)C(=O)N[C@@H](CCCCN)C(=O)N1CCC[C@H]1C(=O)N[C@H](CCSC)C(N)=O [Peptide 148] (HELM PEPTIDE1{[CCCC(=O)[*:2]].H.K.Y.K.P.[dM].[am]}$$$$V2.0)
23 | < 10 | > 10000 | CSCC[C@@H](NC(=O)[C@@H](NC(=O)[C@H](CCCCN)NC(=O)[C@H](Cc1ccc(O)cc1)NC(=O)[C@H](CCCCN)NC(=O)[C@H](Cc1c[nH]c2ccccc12)NC(=O)[C@H](CCCCN)NC(C)=O)C(C)C)C(N)=O [Peptide 4] (HELM PEPTIDE1{[ac].K.W.K.Y.K.V.[dM].[am]}$$$$V2.0)
